Source: PMC5727059, “Antagonistic effect of dopamine structural analogues on human GABAρ1 receptor” (Scientific Reports, 2017)
Entries after “also recorded” stand apart in the source; their conditions may differ. Where two headings read alike, the source gives them in different places.

Legend:
[1] = target: T1, human GABAρ1 (Homo sapiens, UniProt P24046); assay: Inhibition of GABA currents by co-application of 3 µM GABA and analogue, two-microelectrode voltage clamp in X. laevis oocytes; assay type: cell-based; conditions: for extent of inhibition of GABA currents at high concentrations: maximum inhibition compared with full inhibition (100%); for Emax: read-out: Maximal effect on GABA currents, % Inh; for effect on the responses generated by 3 μM GABA: concentrations up to 20 mM, data not shown;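 on all read-outs here: oocytes expressing human GABAρ1 from injected mRNA, recorded 1–5 days later, clamped at −60 mV, room temperature, compounds bath-applied at pH 7.4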
T1 construct: expressed in transfected cells; host or cells: Xenopus laevis oocytes injected with in vitro transcribed mRNA
T1 sequence (P24046 22-479): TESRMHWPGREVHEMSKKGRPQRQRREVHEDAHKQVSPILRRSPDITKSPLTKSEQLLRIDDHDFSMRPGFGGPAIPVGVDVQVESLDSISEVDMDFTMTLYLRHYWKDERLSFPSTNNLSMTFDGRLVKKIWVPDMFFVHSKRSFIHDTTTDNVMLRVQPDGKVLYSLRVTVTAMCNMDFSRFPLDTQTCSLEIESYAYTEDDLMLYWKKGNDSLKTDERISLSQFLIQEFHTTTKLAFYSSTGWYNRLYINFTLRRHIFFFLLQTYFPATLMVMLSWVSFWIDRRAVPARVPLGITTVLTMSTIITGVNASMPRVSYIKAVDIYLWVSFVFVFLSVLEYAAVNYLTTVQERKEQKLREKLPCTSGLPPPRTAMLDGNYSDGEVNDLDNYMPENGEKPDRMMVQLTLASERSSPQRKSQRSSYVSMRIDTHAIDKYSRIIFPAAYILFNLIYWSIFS

[2] = target: T1, human GABAρ1; assay: Modulation of activated GABAρ1: analogue applied during the current plateau upon activation with 3 µM GABA, oocytes; assay type: cell-based; conditions: for Efficacy % to inhibit GABA responses: activated GABA channels (Fig. 5D empty bars), applied during 3 µM GABA perfusion
[3] = target: LGC-53 (Caenorhabditis elegans, UniProt H2KYN9); assay: cell-based; assay type: cell-based; conditions: for gating or modulation of LGC-53: high concentrations (up to 1 mM); for Emax: read-out: Maximal effect versus maximal response to DA, % current;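 on all read-outs here: LGC-53 expressed in frog oocytes, two-electrode voltage clamp at −60 mV, analogues bath-applied, full or partial agonism judged by maximal effect against DA applied before and after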
Chain of LGC-53 (H2KYN9 entry or part of it): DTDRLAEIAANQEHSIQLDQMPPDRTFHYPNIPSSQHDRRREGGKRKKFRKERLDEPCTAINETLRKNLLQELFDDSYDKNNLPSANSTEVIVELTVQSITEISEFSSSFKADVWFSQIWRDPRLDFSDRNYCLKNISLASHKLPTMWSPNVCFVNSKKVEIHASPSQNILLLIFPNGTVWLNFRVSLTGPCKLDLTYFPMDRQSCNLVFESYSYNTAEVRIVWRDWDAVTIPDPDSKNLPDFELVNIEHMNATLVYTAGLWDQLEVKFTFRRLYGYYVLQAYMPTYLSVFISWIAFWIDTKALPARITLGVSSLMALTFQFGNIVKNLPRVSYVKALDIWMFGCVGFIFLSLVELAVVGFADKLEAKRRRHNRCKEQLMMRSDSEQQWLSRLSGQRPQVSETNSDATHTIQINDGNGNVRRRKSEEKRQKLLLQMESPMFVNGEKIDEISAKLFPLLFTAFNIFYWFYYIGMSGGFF

[4] = target: T1, human GABAρ1; assay: Current-voltage ramp (−120 to +70 mV) of GABA currents in presence of the IC50 of each compound, oocytes; assay type: cell-based; conditions: 3 µM GABA, compound at its IC50; GABA alone as reference
Protocol: All these compounds are ionized at pH 7.4.
Supplementary Figure S2. I/V Curves A) Current−voltage relations for GABA currents modulated in presence of DA
analogues. B). Percentage of inhibition of DA analogues (for each compound the IC50s were tested) in the currents
Reverse potentials were: -35.25 ± 1.04 mV, -35.69 ±
reverse potential was -35.07 ± 0.90 mV.
(1 picture or pasted object on this page, not shown here)

[5] = target: T1, human GABAρ1; set-up: method as in Ochoa de la Paz et al., 2012; conditions: Table 1, ref Ochoa de la Paz et al., 2012, cited from earlier work; for IC50: read-out: GABA ρ1 (Human) IC50, oocytes
[6] = target: T1, human GABAρ1; assay: Competition assays: GABA concentration-response curves in presence of 3-MT, oocytes; assay type: cell-based
[7] = receptor activated with GABA 3 µM
[8] = Fig. 7C, maximal concentration tested, DA 300 µM

In the case of COc1cc(CCN)ccc1O [3-MT, 3-Methoxytyramine], the “GABA ρ1 (Human) Antagonist: Full or partial” value (“GABA ρ1 (Human) Antagonist” below) ([1]; Table 1) is reported as “full”, the “extent of inhibition of GABA currents at high concentrations” value (“extent of inhibition of GABA currents” below) [1] is reported as “Full inhibition” and the IC50 ([1]; read-out: GABA ρ1 (Human) IC50, Table 1, oocytes) is reported as 285 ± 3 µM. The Emax [1] was 100 ± 2.17%, the “Efficacy % to inhibit GABA responses” value [2] was 51.65 ± 6.93% and the “decrease of potency on activated receptor versus co-application” value (shortened to “decrease of potency”) [2, 7] was 2 fold. For the same compound, the “activity on LGC-53” value [3] was “inactive”, the “LGC-53 EC50 (mM)” value ([3]; Table 1) was “N.E” and the “gating or modulation of LGC-53” value [3] was “Neither GABA nor 3-MT gated the channel or showed an evident modulatory effect”. For the same compound, the “reversal potential of GABA currents” value [4] was -35.25 ± 1.04 mV.

With NCCCCO [4-AM-1-OH, 4-Amino-1-butanol] the “GABA ρ1 (Human) Antagonist” value ([1]; Table 1) was “full”, the IC50 ([1]; Table 1, oocytes) was 3910 ± 544 µM and the Emax [1] was 98.3 ± 7.3%. For the same compound, the “Efficacy % to inhibit GABA responses” value [2] was 65.50 ± 4.77%, the “increase of potency on activated receptor versus co-application” value ([2]; receptor activated with GABA 3 µM, not statistically significant) was “about 25%” and the “LGC-53 EC50 (mM)” value ([3]; Table 1) was “N.E”.

For CNC[C@H](O)c1ccc(O)c(O)c1 [AD, Adrenaline], the “GABA ρ1 (Human) IC50 (mM)” value ([1]; Table 1, oocytes) was “N.E”, the “effect on the responses generated by 3 μM GABA” value [1] was “failed to elicit any effect” and the “LGC-53 Agonist: Full or partial” value [3] was “partial”. The “agonist type on LGC-53” value [3] was “partial agonists”, the EC50 ([3]; LGC-53 EC50 (mM)) was 3.8 ± 0.803 mM and the Emax [3] was 59.2 ± 9.4%.

In the case of NCCc1ccc(O)c(O)c1 [DA, Dopamine], the “currents generated by the compound alone in oocytes injected with human ρ1” value ([1]; DA up to 1 mM, no GABA) is reported as “did not generate evident currents”, the “extent of inhibition of GABA currents” value [1] is reported as “Full inhibition” and the Emax [1] is reported as 94.3 ± 5.84%. The “Efficacy % to inhibit GABA responses” value [2] was 61.94 ± 6.66%, the “decrease of potency” value [2, 7] was “around 10 fold” and the “LGC-53 Agonist: Full or partial” value [3] was “full”. For the same compound, the EC50 ([3]; EC50 on LGC-53) was 0.00415 ± 0.0011 mM, the EC50 ([3]; LGC-53 EC50 (mM)) was 0.0042 ± 0.001 mM and the “GABA ρ1 (Human) Antagonist” value [5] was “full”. For the same compound, the IC50 [5] was 210 ± 1.12 µM.

With O=C(O)Cc1ccc(O)c(O)c1 [DOPAC, 3,4-Dihydroxyphenylacetic acid] the “GABA ρ1 (Human) Antagonist” value ([1]; Table 1) was “partial”, the IC50 ([1]; Table 1, oocytes) was 2250 ± 258 µM and the “extent of inhibition of GABA currents” value [1] was “significantly different from the full inhibition”. For the same compound, the Emax [1] was 93.6 ± 2.41%, the “change in potency/efficacy between activated receptor and co-application protocols” value [2, 7] was “did not show differences in the efficacy or potency” and the “LGC-53 EC50 (mM)” value ([3]; Table 1) was “N.E”.

For NCCCC(=O)O [GABA, γ-Aminobutyric acid], the “activity on LGC-53” value [3] was “not modulated; also recorded: neither activated LGC-53 nor modulated the DA responses”, the “gating or modulation of LGC-53” value [3] was “Neither GABA nor 3-MT gated the channel or showed an evident modulatory effect” and the “reversal potential of GABA currents” value [4] was -35.07 ± 0.90 mV. The “Hill number of GABA concentration-response curve” value (“Hill number” for short) ([6]; 3-MT at its IC25) was 1.38 ± 0.24, the “Hill number” value ([6]; 3-MT at its IC50) was 1.40 ± 0.27 and the “Hill number” value ([6]; 3-MT at its IC75) was 1.90 ± 0.36. The “Hill number” value ([6]; GABA alone) was 1.34 ± 0.37.

With COc1cc(CC(=O)O)ccc1O [HVA, Homovanillic acid] the “GABA ρ1 (Human) Antagonist” value ([1]; Table 1) was “partial”, the IC50 ([1]; Table 1, oocytes) was 1970 ± 211 µM and the “extent of inhibition of GABA currents” value [1] was “significantly different from the full inhibition”. The Emax [1] was 86.5 ± 1.89%, the “change in potency/efficacy between activated receptor and co-application protocols” value [2, 7] was “did not show differences in the efficacy or potency” and the “LGC-53 EC50 (mM)” value ([3]; Table 1) was “N.E”.

In the case of N[C@@H](Cc1ccc(O)c(O)c1)C(=O)O [L-DOPA, L-3,4-dihydroxyphenylalanine], the “GABA ρ1 (Human) IC50 (mM)” value ([1]; Table 1, oocytes) is reported as “N.E” and the “LGC-53 EC50 (mM)” value ([3]; Table 1) is reported as “N.E”.

With NC[C@H](O)c1ccc(O)c(O)c1 [NAD, Noradrenaline] the “GABA ρ1 (Human) IC50 (mM)” value ([1]; Table 1, oocytes) was “N.E”, the “effect on the responses generated by 3 μM GABA” value [1] was “failed to elicit any effect” and the EC50 [3] was 0.137 ± 0.072 mM. The “LGC-53 Agonist: Full or partial” value ([3]; Table 1) was “partial” and the Emax [3] was 61 ± 13%.

In the case of NCCc1ccc(O)cc1 [Tyr, Tyramine], the “agonist type on LGC-53” value [3] is reported as “partial agonists”, the Emax [3, 8] is reported as 64.7 ± 9.6% and the “LGC-53 Agonist: Full or partial” value ([3]; Table 1) is reported as “partial”. The EC50 ([3]; Table 1, read-out: LGC-53 EC50) was 2.18 ± 0.482 mM, the “GABA ρ1 (Human) Antagonist” value [5] was “full” and the IC50 [5] was 550 ± 12 µM.

In the case of NCCc1ccccc1 [β-PEA, 2-Phenylethylamine], the IC50 [1] is reported as 1790 ± 104 µM, the “GABA ρ1 (Human) Antagonist” value ([1]; Table 1) is reported as “full” and the Emax [1] is reported as 97.3 ± 2.73%. For the same compound, the “Efficacy % to inhibit GABA responses” value [2] was 63.62 ± 11.44%, the “decrease of potency” value [2, 7] was 2 fold and the EC50 [3] was 1.33 ± 0.433 mM. For the same compound, the “agonist type on LGC-53” value [3] was “partial agonists”, the Emax [3, 8] was 48.5 ± 10.4% and the “LGC-53 Agonist: Full or partial” value ([3]; Table 1) was “partial”.
